Measured values as given in PMC12498411, “Antidepressant-like Properties of a Selenium-Containing Pyridinium Salt Explored through In Vitro, In Vivo, and In Silico Approaches” (ACS Chemical Neuroscience, 2025).
Like-named read-outs stand apart in the source and are kept apart here.

What was measured:
[1] = tested on: cerebral lipid peroxidation; assay: TBARS assay, SNP-induced lipid peroxidation in brain homogenate; assay type: biochemical, mouse; settings: for Concentrations effective in reversing SNP-induced oxidative damage (TBARS): tested up to 500 μM
Method: (§1) Brains from mice of both sexes were used for in vitro assays, each performed in duplicate across three independent experiments (n = 3), conducted on different days.
The brain tissues were homogenized in a 50 mM Tris-HCl buffer at pH 7.4, using a 1:10 ratio (w/v). The freshly prepared homogenate was then centrifuged at 900g for 10 min, yielding a low-speed supernatant (S1). Lipid peroxidation was evaluated using the TBARS method as previously described. Lipid peroxidation was induced by 0.3 mM SNP. A 100 μL aliquot of S1 was incubated for 1 h at 37 °C in the presence of the compounds 3A, 3B, and 3C at concentrations ranging from 25 to 500 μM, and SNP or water (to control). The color reaction was initiated by adding 500 μL of a 0.8% thiobarbituric acid (TBA) solution, followed by 200 μL of 8.1% sodium dodecyl sulfate (SDS) and 500 μL of acetic acid (pH 3.4). The reaction mixture was incubated at 95 °C for 1 h. The absorbance was measured using a spectrophotometer at a wavelength of 532 nm. Trolox (100 μM), an antioxidant analogous to vitamin E, served as a positive control. The results were reported as nmol TBARS per gram of tissue. A parallel TBARS experiment was also conducted using a standard alkyl aryl selenide (2-((phenylselanyl)-methyl)-pyridine), dissolved in DMSO at the same concentrations tested, ranging from 25 to 500 μM.

[2] = cited from earlier work
[3] = design: method as in Prigol and colleagues; settings: ref Prigol and colleagues; cited from earlier work
[4] = design: method as in Prigol and colleagues; settings: 500 mg/kg dissolved in oil, per oral; ref Prigol and colleagues; cited from earlier work
[5] = target: T1, MAO-A (Mus musculus, UniProt Q64133); assay: Cerebral MAO-A activity, mitochondria-enriched mouse brain fraction (kynuramine, fluorimetric); assay type: biochemical
T1 construct: Mitochondria-enriched brain preparations were obtained in accordance with established methodology outlined in literature; from tissue; host or cells: mouse brain, mitochondria-enriched fraction
T1 sequence (Q64133 1-526): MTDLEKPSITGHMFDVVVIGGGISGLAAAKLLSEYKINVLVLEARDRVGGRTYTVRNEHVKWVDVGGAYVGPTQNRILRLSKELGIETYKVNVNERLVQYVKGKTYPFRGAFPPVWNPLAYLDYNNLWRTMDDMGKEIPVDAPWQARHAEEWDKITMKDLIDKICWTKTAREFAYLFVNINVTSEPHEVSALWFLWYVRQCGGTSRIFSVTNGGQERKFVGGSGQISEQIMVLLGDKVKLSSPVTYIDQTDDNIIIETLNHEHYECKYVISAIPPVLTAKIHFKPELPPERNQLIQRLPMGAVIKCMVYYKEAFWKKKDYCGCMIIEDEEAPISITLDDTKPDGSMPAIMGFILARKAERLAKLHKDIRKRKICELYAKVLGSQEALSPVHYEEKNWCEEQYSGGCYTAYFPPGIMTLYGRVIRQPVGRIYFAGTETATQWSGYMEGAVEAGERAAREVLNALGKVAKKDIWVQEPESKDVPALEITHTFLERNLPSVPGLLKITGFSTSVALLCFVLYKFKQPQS
Method: (§2) Mitochondria-enriched brain preparations were obtained in accordance with established methodology outlined in literature. The homogenate was prepared using the mouse brain tissue and a homogenization buffer (Na2PO4/KH2PO4/sucrose) at a ratio of 1:4 (w/v). The homogenate was centrifuged at 900g at 4 °C for 5 min. The resulting supernatant was separated and subjected to centrifugation at 12,500g for 15 min. The resulting pellet was resuspended in the homogenization buffer and subjected to a further round of centrifugation under identical conditions. Finally, the mitochondrial pellet obtained was reconstituted in an assay buffer solution (Na2PO4/KH2PO4/KCl). Protein concentration was estimated using the Bradford method and standardized as 1 mg/mL for the experiments.
(§3) MAO activity was assessed following the method outlined by Krajl, with some modifications by Matsumoto. Briefly, a 100 μL aliquot of the mitochondria-rich fraction was incubated at 37 °C for 5 min with specific MAO inhibitors: clorgyline (250 nM, a MAO-A inhibitor), or pargyline (250 nM, a MAO-B inhibitor). Then, 10 μL of each compound was introduced at varying concentrations (25–200 μM). Water (10 μL) was used in the control tubes. Afterward, the substrate, 20 μL of kynuramine dihydrobromide, was added to achieve a final concentration of 90 μM for MAO-A and 60 μM for MAO-B. The samples were incubated at 37 °C for 30 min. The reaction was halted by the addition of 300 μL of 10% trichloroacetic acid (TCA). After centrifuging at 16,000g for 15 min, an aliquot of 800 μL of the supernatant was mixed with 1 mL of 1 M sodium hydroxide (NaOH). The samples were measured using a fluorimeter with excitation at 315 nm and emission at 380 nm.

[6] = target: T2, MAO-B (Mus musculus, UniProt Q8BW75); assay: Cerebral MAO-B activity, mitochondria-enriched mouse brain fraction (kynuramine, fluorimetric); assay type: biochemical
T2 construct: Mitochondria-enriched brain preparations were obtained in accordance with established methodology outlined in literature; from tissue; host or cells: mouse brain, mitochondria-enriched fraction
T2 sequence (Q8BW75 1-520): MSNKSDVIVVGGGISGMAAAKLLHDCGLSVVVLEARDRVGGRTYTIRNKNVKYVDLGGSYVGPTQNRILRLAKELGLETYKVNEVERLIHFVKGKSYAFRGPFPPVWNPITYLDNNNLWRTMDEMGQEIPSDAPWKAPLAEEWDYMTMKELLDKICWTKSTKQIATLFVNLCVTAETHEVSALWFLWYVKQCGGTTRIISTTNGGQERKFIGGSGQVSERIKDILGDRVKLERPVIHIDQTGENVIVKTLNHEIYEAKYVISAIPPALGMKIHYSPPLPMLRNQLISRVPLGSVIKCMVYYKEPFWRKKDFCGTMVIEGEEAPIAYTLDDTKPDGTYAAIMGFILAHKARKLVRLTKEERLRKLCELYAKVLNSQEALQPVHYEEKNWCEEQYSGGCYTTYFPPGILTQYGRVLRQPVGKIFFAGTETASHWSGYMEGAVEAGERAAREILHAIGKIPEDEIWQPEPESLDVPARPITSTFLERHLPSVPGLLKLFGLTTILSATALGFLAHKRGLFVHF
Method: as §2, §3

[7] = tested on: protein carbonylation; assay: Protein carbonylation assay, SNP-induced, brain homogenate; assay type: biochemical, mouse
Method: as §1
The evaluation of protein carbonylation was performed according to a previously established protocol, using freshly prepared brain homogenate diluted at a 1:8 ratio in Tris-HCl buffer. Test compounds (10 μL), ranging in concentrations from 25 to 200 μM, were individually introduced into separate test tubes. Trolox (100 μM) served as the standard antioxidant. The diluted brain homogenate (940 μL) was then added to all tubes, followed by SNP (1 mM) as the inducing oxidative agent (50 μL). The tubes were promptly incubated at 37 °C for 2 h. Following incubation, 2 M HCl was added to blank tubes (200 μL), while 10 mM 2,4-dinitrophenyl-hydrazine (DNPH) solution was added to test tubes (200 μL). The mixture was incubated for 1 h in darkness at room temperature, with intermittent stirring every 15 min to facilitate the color reaction. Subsequently, 500 μL of denaturation buffer, 1.5 mL of ethanol, and 1.5 mL of hexane were added to all tubes, which were then vigorously shaken for 40 s. The tubes were then centrifuged at 900g for 15 min, and the supernatant was carefully decanted. The resulting pellet was washed twice with 1 mL of ethanol/ethyl acetate solution (1:1). After allowing the pellet to dry air for 2 min, it was resuspended in 1 mL of denaturation buffer and subjected to spectrophotometric analysis at 370 nm. The findings were quantified as nmol carbonyl per gram of tissue.

[8] = tested on: female Swiss mice; design: method as in previously conducted by our research group; settings: same methodology layout; ref previously conducted by our research group; cited from earlier work
[9] = tested on: male Swiss mice; assay: Tail suspension test (TST); assay type: in vivo, mouse
Method: A behavioral screening was conducted using the three salts to determine their potential antidepressant-like actions (n = 7–9 mice/group).
(§4) A dosage of 5 mg/kg (intragastric route, i.g., by gavage) was administered to all groups receiving the salts. […] The TST was conducted 30 min following drug administration, with the OFT being performed 4 min prior to the TST.
(§5) Following the selection of the most promising salt during screening (Compound 3B), an analysis of the compound’s time-response curve was conducted in the mouse TST. For this purpose, the animals were divided into five groups: (I) control (water; i.g.), (II) the group receiving compound 3B 15 min prior to TST, (III) the group receiving compound 3B 30 min before TST, (IV) the group receiving compound 3B 60 min before TST, and (V) the group receiving compound 3B 120 min before TST. The dosage of salt was standardized at 5 mg/kg (i.g). OFT was conducted 4 min prior to the TST.
(§6) After choosing a suitable preadministration time, the dose–response curve of the compound at this fixed time was analyzed. The animals were categorized into […]: I) a control group (administered water; i.g.) and groups II, III, IV and V) receiving compound 3B at doses of 0.5 mg/kg, 1 mg/kg, 2.5 mg/kg, and 5 mg/kg (i.g.), respectively. […] Thirty minutes postadministration, the animals underwent the TST. Four minutes prior to the TST, they underwent the OFT.
This test aims to assess depressive-like behavior and antidepressant-like action of therapies by measuring immobility. […] The test was conducted using a mouse suspension box made of wood, measuring 50 cm × 21 cm × 21 cm, designed to prevent any visual or physical interaction among the animals. A suspension bar was positioned atop the box, and the mouse’s tail was affixed to the bar using adhesive tape. The test duration was 6 min, during which the animal’s latency to the first immobility episode and the total duration of immobility (sec) were assessed.

[10] = tested on: male Swiss mice; assay: Open field test (OFT) before the TST; assay type: in vivo, mouse; settings: 3B 0.5–5 mg/kg i.g.; fluoxetine 20 mg/kg i.p.
Method: as §4, §5, §6
The aim of this behavioral test is to assess the locomotion and exploration behavior of the animals using an open field apparatus measuring 30 cm × 30 cm × 15 cm, constructed from plywood with a floor divided into nine quadrants, facilitating free movement for the animals. During the OFT, the animals were positioned in the center of the apparatus and subjected to a 5 min testing period, following the protocol outlined in literature. The number of quadrant crossings and rearings was recorded and quantified during testing phase.

[11] = tested on: rodent; settings: literature value, cited from earlier work
[12] = salts 5 mg/kg i.g., fluoxetine 20 mg/kg i.p., 30 min before test

**Q.** With c1ccc([Se]Cc2ccccn2)cc1 [2-((phenylselanyl)methyl)pyridine, reference compound] as the compound, how does the “Concentrations effective in reversing SNP-induced oxidative damage (TBARS)” value ([1]; mouse brain homogenate) read?
**A.** 500 µM

**Q.** For c1ccc([Se]c2c(-c3ccccc3)cn3ccccc23)cc1 [2-phenyl-1-(phenylselanyl)indolizine], which “Effective dose (previously studied related molecule)” value [2] is on record?
**A.** ≥ 10 mg/kg

**Q.** Which “Solubility in isotonic phosphate buffer” value [3] does the source give for c1ccc([Se][Se]c2ccccc2)cc1 [(PhSe)2, diphenyl diselenide] here?
**A.** poor solubility in isotonic phosphate buffer

**Q.** What about the “Selenium levels in plasma” value [4] of the same compound?
**A.** very low levels of selenium in plasma

**Q.** Which IC50 [5] does the source give for O=C(C[n+]1ccccc1C[Se]c1ccccc1)c1ccc(Cl)cc1.[Br-] [Compound 3C, 1-(2-(4-chlorophenyl)-2-oxoethyl)-2-((phenylselanyl)methyl)pyridin-1-ium bromide] here?
**A.** 77.6 µM

**Q.** What about the “Concentrations with significant inhibition of MAO-A activity” value ([5]; tested 25–200 μM, Dunnett vs control) of the same compound?
**A.** ≥ 50 µM

**Q.** And the IC50 [6]?
**A.** 125 µM

**Q.** What about the IC50 ([1]; mouse brain homogenate, SNP-induced) of the same compound?
**A.** 102 µM

**Q.** And the “Concentrations effective in reversing SNP-induced oxidative damage (TBARS)” value ([1]; mouse brain homogenate)?
**A.** 50 to 500 µM

**Q.** And the IC50 ([7]; mouse brain homogenate, SNP-induced, 25–200 μM)?
**A.** 111 µM

**Q.** What about the “Signs of toxicity in acute oral toxicity study” value [8] of the same compound?
**A.** no signs of toxicity

**Q.** Which “TST immobility time, positive control in dose–response experiment” value ([9]; 20 mg/kg i.p., 30 min) does the source give for CNCCC(Oc1ccc(C(F)(F)F)cc1)c1ccccc1 (stereo not drawn) [Fluoxetine, reference compound] here?
**A.** effectively reduced the immobility time

**Q.** And the “TST latency time, positive control in dose–response experiment” value ([9]; 20 mg/kg i.p., 30 min)?
**A.** as also observed in the fluoxetine group

**Q.** And the “TST latency time to first immobility episode, screening” value [9, 12]?
**A.** significantly increased latency time

**Q.** What about the “TST total immobility time, screening” value [9, 12] of the same compound?
**A.** shorter total immobility times

**Q.** And the “OFT number of rearings, dose–response experiment” value [10]?
**A.** decreased rearings

**Q.** What about the “Reduction in rodent locomotor activity” value ([11]; 30 mg/kg) of the same compound?
**A.** 89%

**Q.** Which “Effect of positive control on SNP-induced TBARS” value ([1]; 100 μM) does the source give for Cc1c(C)c2c(c(C)c1O)CCC(C)(C(=O)O)O2 (stereo not drawn) [Trolox, reference compound] here?
**A.** effectively reversed oxidative damage

**Q.** What about the “Effect of positive control on protein carbonylation” value ([7]; 100 μM) of the same compound?
**A.** effective

**Q.** Which “Reduction in rodent locomotor activity” value ([11]; 10 mg/kg) does the source give for CN(C)CC/C=C1\c2ccccc2CSc2ccccc21 [dothiepin] here?
**A.** 73%

**Q.** With COc1ccc(C(CN(C)C)C2(O)CCCCC2)cc1 (stereo not drawn) [venlafaxine] as the compound, how does the “Reduction in rodent locomotor activity” value ([11]; 50 mg/kg) read?
**A.** 62%
